{"source": "the supplement of paper PMC10307832", "experiment_in_all_cases": "relative viability (nuclei count vs DMSO), 5 days (fraction); higher = more cells survive", "key": {"NCI-H1623": {"test_system": "NCI-H1623", "procedure,_shortened": "(§1)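 Nuclei were stained with Hoechst during a one-step fixation (final 0.05% Triton X-100, 1% formaldehyde, 1 ug/ml Hoechst) carried out 5 days after dosing, then counted on 4× images. The cells, lung cancer lines in 1536-well plates, had been dosed by pin tool the day after seeding with one drug alone or a fixed anchor-drug dose plus five library-drug doses (not always all listed) in √10 steps. Relative viability is the nuclei count in treated wells divided by that in vehicle wells, and each value is the median of duplicate plates.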"}, "RERF-LC-KJ": {"test_system": "RERF-LC-KJ", "procedure,_shortened": "as §1"}, "NCI-H2126": {"test_system": "NCI-H2126", "procedure,_shortened": "as §1"}, "NCI-H1993": {"test_system": "NCI-H1993", "procedure,_shortened": "as §1"}, "NCI-H1648": {"test_system": "NCI-H1648", "procedure,_shortened": "as §1"}, "ABC-1": {"test_system": "ABC-1", "procedure,_shortened": "as §1"}, "NCI-H2085": {"test_system": "NCI-H2085", "procedure,_shortened": "as §1"}, "EKVX": {"test_system": "EKVX", "procedure,_shortened": "as §1"}, "HCC-44": {"test_system": "HCC-44", "procedure,_shortened": "as §1"}}}
{"smiles": "Nc1ccn([C@@H]2O[C@H](CO)[C@@H](O)[C@@H]2O)c(=O)n1", "note": "[Cytarabine] + Cc1cc(Nc2cc(N3CCN(C)CC3)nc(Sc3ccc(NC(=O)C4CC4)cc3)n2)n[nH]1 [Tozasertib] (partner 0.1 µM)", "values": [{"measurement": "relative viability", "setting": "NCI-H1623; first compound 0.005 µM", "value": 0.325}, {"measurement": "relative viability", "setting": "NCI-H1623; first compound 0.01581 µM", "value": 0.264}, {"measurement": "relative viability", "setting": "NCI-H1623; first compound 0.05 µM", "value": 0.284}, {"measurement": "relative viability", "setting": "NCI-H1623; first compound 0.1581 µM", "value": 0.199}, {"measurement": "relative viability", "setting": "NCI-H1623; first compound 0.5 µM", "value": 0.178}, {"measurement": "relative viability", "setting": "RERF-LC-KJ; first compound 0.005 µM", "value": 0.385}, {"measurement": "relative viability", "setting": "RERF-LC-KJ; first compound 0.01581 µM", "value": 0.512}, {"measurement": "relative viability", "setting": "RERF-LC-KJ; first compound 0.05 µM", "value": 0.353}, {"measurement": "relative viability", "setting": "RERF-LC-KJ; first compound 0.1581 µM", "value": 0.393}, {"measurement": "relative viability", "setting": "RERF-LC-KJ; first compound 0.5 µM", "value": 0.266}, {"measurement": "relative viability", "setting": "NCI-H2126; first compound 0.005 µM", "value": 0.655}, {"measurement": "relative viability", "setting": "NCI-H2126; first compound 0.01581 µM", "value": 0.774}, {"measurement": "relative viability", "setting": "NCI-H2126; first compound 0.05 µM", "value": 0.607}, {"measurement": "relative viability", "setting": "NCI-H2126; first compound 0.1581 µM", "value": 0.53}, {"measurement": "relative viability", "setting": "NCI-H2126; first compound 0.5 µM", "value": 0.348}, {"measurement": "relative viability", "setting": "NCI-H1993; first compound 0.005 µM", "value": 0.631}, {"measurement": "relative viability", "setting": "NCI-H1993; first compound 0.01581 µM", "value": 0.633}, {"measurement": "relative viability", "setting": "NCI-H1993; first compound 0.05 µM", "value": 0.681}, {"measurement": "relative viability", "setting": "NCI-H1993; first compound 0.1581 µM", "value": 0.534}, {"measurement": "relative viability", "setting": "NCI-H1993; first compound 0.5 µM", "value": 0.564}, {"measurement": "relative viability", "setting": "NCI-H1648; first compound 0.005 µM", "value": 0.456}, {"measurement": "relative viability", "setting": "NCI-H1648; first compound 0.01581 µM", "value": 0.517}, {"measurement": "relative viability", "setting": "NCI-H1648; first compound 0.05 µM", "value": 0.484}, {"measurement": "relative viability", "setting": "NCI-H1648; first compound 0.1581 µM", "value": 0.265}, {"measurement": "relative viability", "setting": "NCI-H1648; first compound 0.5 µM", "value": 0.32}, {"measurement": "relative viability", "setting": "ABC-1; first compound 0.005 µM", "value": 0.209}, {"measurement": "relative viability", "setting": "ABC-1; first compound 0.01581 µM", "value": 0.176}, {"measurement": "relative viability", "setting": "ABC-1; first compound 0.05 µM", "value": 0.174}, {"measurement": "relative viability", "setting": "ABC-1; first compound 0.1581 µM", "value": 0.154}, {"measurement": "relative viability", "setting": "ABC-1; first compound 0.5 µM", "value": 0.183}, {"measurement": "relative viability", "setting": "NCI-H2085; first compound 0.005 µM", "value": 0.809}, {"measurement": "relative viability", "setting": "NCI-H2085; first compound 0.01581 µM", "value": 0.806}, {"measurement": "relative viability", "setting": "NCI-H2085; first compound 0.05 µM", "value": 0.844}, {"measurement": "relative viability", "setting": "NCI-H2085; first compound 0.1581 µM", "value": 0.694}, {"measurement": "relative viability", "setting": "NCI-H2085; first compound 0.5 µM", "value": 0.719}, {"measurement": "relative viability", "setting": "EKVX; first compound 0.005 µM", "value": 0.326}, {"measurement": "relative viability", "setting": "EKVX; first compound 0.01581 µM", "value": 0.35}, {"measurement": "relative viability", "setting": "EKVX; first compound 0.05 µM", "value": 0.333}, {"measurement": "relative viability", "setting": "EKVX; first compound 0.1581 µM", "value": 0.272}, {"measurement": "relative viability", "setting": "EKVX; first compound 0.5 µM", "value": 0.19}, {"measurement": "relative viability", "setting": "HCC-44; first compound 0.005 µM", "value": 0.925}, {"measurement": "relative viability", "setting": "HCC-44; first compound 0.01581 µM", "value": 0.928}, {"measurement": "relative viability", "setting": "HCC-44; first compound 0.05 µM", "value": 0.418}, {"measurement": "relative viability", "setting": "HCC-44; first compound 0.1581 µM", "value": 0.379}, {"measurement": "relative viability", "setting": "HCC-44; first compound 0.5 µM", "value": 0.255}]}
